Data as given in PubChem BioAssay AID2060600 (Molecular Pharmacology Branch, DTP, NCI, 2025).
Blank lines part the entries; values can stand above or below the molecule they belong to.

Test system: 996289-038-R-J1-PDC complex spheroid viability
Experiment: Anticancer human tumor 996289-038-R-J1-PDC patient-derived colon adenocarcinoma cell line growth inhibition [CLK]
Conditions: for IC50: curve of first compound; for viability, T/C: stronger effect = lower value
Outline: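 Multi-cell-type spheroids combined patient-derived tumor cells with HUVEC endothelial cells and human mesenchymal stem cells. Paired agents were dosed in half-log steps down from about clinical Cmax, or from 10 microM where Cmax was unknown.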

[1] = second compound 0.0316 µM, first compound 0.0316 µM
[2] = second compound 0.0316 µM, first compound 0.1 µM
[3] = second compound 0.0316 µM, first compound 0.316 µM
[4] = second compound 0.0316 µM, first compound 1 µM
[5] = second compound 0.0316 µM, first compound 3.16 µM
[6] = second compound 0.0316 µM, first compound 10 µM
[7] = second compound 0.1 µM, first compound 0.0316 µM
[8] = second compound 0.1 µM, first compound 0.1 µM
[9] = second compound 0.1 µM, first compound 0.316 µM
[10] = second compound 0.1 µM, first compound 1 µM
[11] = second compound 0.1 µM, first compound 3.16 µM
[12] = second compound 0.1 µM, first compound 10 µM
[13] = second compound 0.316 µM, first compound 0.0316 µM
[14] = second compound 0.316 µM, first compound 0.1 µM
[15] = second compound 0.316 µM, first compound 0.316 µM
[16] = second compound 0.316 µM, first compound 1 µM
[17] = second compound 0.316 µM, first compound 3.16 µM
[18] = second compound 0.316 µM, first compound 10 µM
[19] = second compound 1 µM, first compound 0.0316 µM
[20] = second compound 1 µM, first compound 0.1 µM
[21] = second compound 1 µM, first compound 0.316 µM
[22] = second compound 1 µM, first compound 1 µM
[23] = second compound 1 µM, first compound 3.16 µM
[24] = second compound 1 µM, first compound 10 µM
[25] = second compound 3.16 µM, first compound 0.0316 µM
[26] = second compound 3.16 µM, first compound 0.1 µM
[27] = second compound 3.16 µM, first compound 0.316 µM
[28] = second compound 3.16 µM, first compound 1 µM
[29] = second compound 3.16 µM, first compound 3.16 µM
[30] = second compound 3.16 µM, first compound 10 µM
[31] = second compound 10 µM, first compound 0.0316 µM
[32] = second compound 10 µM, first compound 0.1 µM
[33] = second compound 10 µM, first compound 0.316 µM
[34] = second compound 10 µM, first compound 1 µM
[35] = second compound 10 µM, first compound 3.16 µM
[36] = second compound 10 µM, first compound 10 µM
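Further: spheroids exposed to the agents for 7 days before readout.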

IC50 (second compound 0.0316 µM): > 10000 nM
IC50 (second compound 0.1 µM): > 10000 nM
IC50 (second compound 0.316 µM): > 10000 nM
IC50 (second compound 1 µM): > 10000 nM
IC50 (second compound 3.16 µM): > 10000 nM
IC50 (second compound 10 µM): > 10000 nM
Structure (SMILES): CC(=O)O[C@H]1C(=O)[C@@]2(C)[C@H]([C@H](OC(=O)c3ccccc3)[C@]3(O)C[C@H](OC(=O)[C@H](O)[C@@H](NC(=O)c4ccccc4)c4ccccc4)C(C)=C1C3(C)C)[C@]1(OC(C)=O)CO[C@@H]1C[C@@H]2O + CNC(=O)c1ccc(Nc2nc(OC3CCCC3)c3c(-c4ccc5nc(C)oc5c4)c[nH]c3n2)c(OC)c1
viability, T/C [1]: 109%
viability, T/C [2]: 103%
viability, T/C [3]: 79.9%
viability, T/C [4]: 70.3%
viability, T/C [5]: 67.4%
viability, T/C [6]: 64.6%
viability, T/C [7]: 110%
viability, T/C [8]: 96%
viability, T/C [9]: 80%
viability, T/C [10]: 79.2%
viability, T/C [11]: 74.8%
viability, T/C [12]: 65.4%
viability, T/C [13]: 68.6%
viability, T/C [14]: 70.3%
viability, T/C [15]: 65.6%
viability, T/C [16]: 66.3%
viability, T/C [17]: 69.2%
viability, T/C [18]: 73.3%
viability, T/C [19]: 63.2%
viability, T/C [20]: 59%
viability, T/C [21]: 57.5%
viability, T/C [22]: 53.5%
viability, T/C [23]: 62.9%
viability, T/C [24]: 61.8%
viability, T/C [25]: 59.6%
viability, T/C [26]: 55%
viability, T/C [27]: 54%
viability, T/C [28]: 54.3%
viability, T/C [29]: 59%
viability, T/C [30]: 65.2%
viability, T/C [31]: 56.7%
viability, T/C [32]: 53.5%
viability, T/C [33]: 55.2%
viability, T/C [34]: 53.8%
viability, T/C [35]: 59.6%
viability, T/C [36]: 53.7%

IC50 (second compound 0.0316 µM): > 10000 nM
IC50 (second compound 0.1 µM): > 10000 nM
IC50 (second compound 0.316 µM): 5720 nM
IC50 (second compound 1 µM): 2470 nM
IC50 (second compound 3.16 µM): 1410 nM
IC50 (second compound 10 µM): 1130 nM
Structure (SMILES): COc1ccc([C@@H](O)c2cc(-c3ncnc4cc(N5CCOCC5)ccc34)c(F)cc2Cl)nn1 + CNC(=O)c1ccc(Nc2nc(OC3CCCC3)c3c(-c4ccc5nc(C)oc5c4)c[nH]c3n2)c(OC)c1
viability, T/C [1]: 117%
viability, T/C [2]: 117%
viability, T/C [3]: 101%
viability, T/C [4]: 102%
viability, T/C [5]: 75.4%
viability, T/C [6]: 54.7%
viability, T/C [7]: 121%
viability, T/C [8]: 112%
viability, T/C [9]: 99.1%
viability, T/C [10]: 101%
viability, T/C [11]: 86.8%
viability, T/C [12]: 52.7%
viability, T/C [13]: 82.3%
viability, T/C [14]: 73.9%
viability, T/C [15]: 68.9%
viability, T/C [16]: 62.5%
viability, T/C [17]: 66%
viability, T/C [18]: 39.3%
viability, T/C [19]: 67.8%
viability, T/C [20]: 58.5%
viability, T/C [21]: 58.4%
viability, T/C [22]: 55.7%
viability, T/C [23]: 50.6%
viability, T/C [24]: 26.9%
viability, T/C [25]: 56.2%
viability, T/C [26]: 59.4%
viability, T/C [27]: 51.9%
viability, T/C [28]: 52%
viability, T/C [29]: 45.7%
viability, T/C [30]: 25.9%
viability, T/C [31]: 56%
viability, T/C [32]: 57%
viability, T/C [33]: 52.3%
viability, T/C [34]: 50.2%
viability, T/C [35]: 44.1%
viability, T/C [36]: 27.2%

IC50 (second compound 0.0316 µM): 4460 nM
IC50 (second compound 0.1 µM): 2150 nM
IC50 (second compound 0.316 µM): 983 nM
IC50 (second compound 1 µM): 173 nM
IC50 (second compound 3.16 µM): < 31.6 nM
IC50 (second compound 10 µM): 66.9 nM
Structure (SMILES): COc1cccc2c1C(=O)c1c(O)c3c(c(O)c1C2=O)CC(O)(C(=O)CO)CC3OC1CC(N)C(O)C(C)O1 (stereo unspecified) + CNC(=O)c1ccc(Nc2nc(OC3CCCC3)c3c(-c4ccc5nc(C)oc5c4)c[nH]c3n2)c(OC)c1
viability, T/C [1]: 119%
viability, T/C [2]: 98.7%
viability, T/C [3]: 87.5%
viability, T/C [4]: 68.8%
viability, T/C [5]: 59.9%
viability, T/C [6]: 36%
viability, T/C [7]: 104%
viability, T/C [8]: 110%
viability, T/C [9]: 79.7%
viability, T/C [10]: 59.9%
viability, T/C [11]: 50%
viability, T/C [12]: 28.7%
viability, T/C [13]: 75.3%
viability, T/C [14]: 73.4%
viability, T/C [15]: 63.1%
viability, T/C [16]: 51%
viability, T/C [17]: 31%
viability, T/C [18]: 18.5%
viability, T/C [19]: 64.8%
viability, T/C [20]: 56.6%
viability, T/C [21]: 42.2%
viability, T/C [22]: 28.1%
viability, T/C [23]: 14.3%
viability, T/C [24]: 10.3%
viability, T/C [25]: 49.3%
viability, T/C [26]: 48.2%
viability, T/C [27]: 38.5%
viability, T/C [28]: 19.5%
viability, T/C [29]: 10.3%
viability, T/C [30]: 7.76%
viability, T/C [31]: 53.1%
viability, T/C [32]: 47.6%
viability, T/C [33]: 36.6%
viability, T/C [34]: 18.1%
viability, T/C [35]: 8.69%
viability, T/C [36]: 7.86%
